Assay results: patent US20260234208A1, “METHOD FOR PRODUCING A KERATIN POWDER FROM FEATHERS OF ANIMAL ORIGIN, COLLOIDAL SOLUTION AND KERATIN POWDER FOR TOPICAL APPLICATION CONTAINING KERATIN PARTICLES, AND USE OF THE COLLOIDAL SOLUTION AND THE KERATIN POWDER” (RIGI THERAPEUTICS AG, priority 2023, published 2026)

Assay: Water release in climate chamber
Assay type: physicochemical
Settings: room temperature, humidity 50%
Experimental: When urea was added, up to a ratio of 5% keratin to 95% urea, the maximum was reached increasingly later, in the maximum case only after 15 days. In this case, the water absorption capacity was 197%. (FIG. 13). The water release was determined at room temperature and a humidity of 50%. […] For the mixtures of keratin and urea in the ratios 25:75 and 10:[…], a water content of 25% was still observed even after 4 days (FIG. 14).

Time to complete water release: 4 days
Water release within the first 24 hours: around 170%
Compound: NC(N)=O [urea]
